By MBC is commonly meant the smallest concentration meeting the test's criterion for killing. Read a high MBC as weaker bactericidal potency. One may read the MIC as the lowest concentration found to suppress growth. Lower therefore signals inhibition by little substance.

What all share (format): cell-based
One data set concerns Aeromonas salmonicida. The settings on record: 16 h. As for the experimental part: (§1) The antibacterial activity of peptides β-Pte20, β-Pte17, β-Pte13 and β-Pte10 from pteroicidin B and γ-Pte20, γ-Pte17, γ-Pte13 and γ-Pte10 from pteroicidin C was evaluated on several bacteria as presented in Table 3. All peptides were solubilized in sterilized water. The minimum inhibitory concentrations (MICs) were determined according to the liquid growth inhibition test following the protocol established by Hetru and Bulet and used for the study of α-pteroicidins. Briefly, 10 μL of peptide solution were added to 100 μL of bacterial suspension at a starting OD600 of 0.001 (~10^5 to 10^6 CFU/mL according to strain) and incubated in 96-well microplates. Bacterial growth was assessed by optical density measurement at 595 nm after 16 h of incubation. All the tests were performed three times, and each peptide concentration between 0.1 and 50 µM was tested in triplicate. MICs were expressed in µM as an [a]–[b] concentration interval where [a] was the last concentration with bacterial growth and [b] was the first concentration with 100% bacterial growth inhibition. MBCs (minimal bactericidal concentrations) were expressed in µM as an [a]–[b] concentration interval where [a] was the last concentration with bacterial growth and [b] was the first concentration that killed 100% of the bacteria, determined after the plating on agar plates.

In the next data set the test system is Escherichia coli. To be noted: 16 h. As for the experimental part: as §1
In another data set the test system is Listeria monocytogenes. The settings on record: 16 h. As for the experimental part:
as §1

Another data set concerns Salmonella typhimurium. To be noted: 16 h; for MIC: murium. Here is the method: as §1
For another data set, the system named is Staphylococcus aureus. The settings on record: 16 h. Here is the method:
as §1

The subject of another data set is Vibrio aestuarianus. To be noted: 16 h. Here is the method:
as §1

For another data set, the system named is Vibrio splendidus. To be noted: 16 h. As for the experimental part:
as §1

The subject of another data set is Vibrio vulnificus. The settings on record: 16 h. Here is the method: as §1
Another data set has as its system Enterococcus faecalis. To be noted: 16 h. As for the experimental part: as §1
The next data set deals with human red blood cells. The settings on record: 200 µM. Here is the method: The hemolytic activity of peptides β-Pte20, β-Pte17, β-Pte13 and β-Pte10 from pteroicidin B and γ-Pte20, γ-Pte17, γ-Pte13 and γ-Pte10 from pteroicidin C was evaluated on human red blood cells (RBCs) following the protocol previously described in [96] and used for α-Pte in a previous study. RBCs were obtained from nine blood samples from French blood donors thanks to the support of the Etablissement Français du Sang (EFS). RBCs were rinsed twice in PBS and then diluted to obtain a 1% erythrocyte solution (~5 × 10^6 cells determined using a Scepter™ 2.0 cell counter). Ninety μL of erythrocyte solution were incubated with 90 μL of peptide solution at concentrations ranging from 5 to 200 μM, for one hour at 37 °C without shaking. The percentage of hemolysis was determined by optical density measurement at 415 nm. The experiment was performed in triplicate. The 0% hemolysis and 100% hemolysis controls were determined in PBS and 1% Triton X-100, respectively.

Ends that are not written are not given here.

As for FFKRLKNAFKSARQAWR [β-Pte17], the MBC with Aeromonas salmonicida lay within 5 to 10 µM; in the data set with Escherichia coli, 1 to 5 µM; with Listeria monocytogenes, 25 to 50 µM; in the data set with Salmonella typhimurium, 10 to 25 µM; against Staphylococcus aureus, 25 to 50 µM; in the data set with Vibrio aestuarianus, 10 to 25 µM. Also, the MBC in the data set on Vibrio splendidus and in the data set with Vibrio vulnificus was 10 to 25 µM in each case. For the same sequence, the MIC is 5 to 10 µM against Aeromonas salmonicida; 1 to 5 µM in the data set on Escherichia coli; 5 to 10 µM with Listeria monocytogenes; 10 to 25 µM in the data set on Salmonella typhimurium; 10 to 25 µM in the data set on Staphylococcus aureus; 10 to 25 µM in the data set with Vibrio aestuarianus. The MIC in the data set on Vibrio splendidus and in the data set on Vibrio vulnificus was 10 to 25 µM each time.
Regarding FFKRLKNAFKSARQAWRDYK [β-Pte20], the MBC with Aeromonas salmonicida fell in the range of 1 to 5 µM; in the data set with Escherichia coli, 5 to 10 µM; with Listeria monocytogenes it was 5 to 10 µM; in the data set on Salmonella typhimurium it was 10 to 25 µM; with Staphylococcus aureus it was 10 to 25 µM; against Vibrio aestuarianus, 5 to 10 µM. Besides, the MBC with Vibrio splendidus and against Vibrio vulnificus was 5 to 10 µM in each case. Moreover, the MIC in the data set on Aeromonas salmonicida lay within 1 to 5 µM; against Escherichia coli it was 1 to 5 µM; with Listeria monocytogenes it was 1 to 5 µM; against Salmonella typhimurium, 10 to 25 µM; in the data set on Staphylococcus aureus it was 1 to 5 µM; in the data set on Vibrio aestuarianus, 1 to 5 µM. The minimum inhibitory concentration (MIC) against Vibrio splendidus was in the range of 1 to 5 µM; against Vibrio vulnificus it was 5 to 10 µM.
Consider FFRHLKSLWK [γ-Pte10], for which the MIC in the data set with Aeromonas salmonicida and with Escherichia coli was 25 to 50 µM throughout. Besides, in the data set on Escherichia coli, the minimal bactericidal concentration (MBC) was in the range of 25 to 50 µM.
As to FFRHLKSLWKGAK [γ-Pte13], in the data set on Aeromonas salmonicida, the MIC is 25 to 50 µM. Also, in the data set on Escherichia coli, the MBC is 10 to 25 µM and the MIC fell in the range of 10 to 25 µM.
As to FFRHLKSLWKGAKAAFR [γ-Pte17], the minimal bactericidal concentration (MBC) against Aeromonas salmonicida fell in the range of 1 to 5 µM; in the data set with Escherichia coli, 10 to 25 µM; against Listeria monocytogenes, 5 to 10 µM; with Salmonella typhimurium, 5 to 10 µM; with Staphylococcus aureus, 1 to 5 µM; with Vibrio aestuarianus, 5 to 10 µM. Also, the MBC in the data set with Vibrio splendidus and in the data set on Vibrio vulnificus was 10 to 25 µM in each case. Moreover, the MIC was in the range of 1 to 5 µM with Aeromonas salmonicida; 1 to 5 µM in the data set on Enterococcus faecalis; 1 to 5 µM in the data set on Escherichia coli; 1 to 5 µM against Listeria monocytogenes; 5 to 10 µM against Salmonella typhimurium; 1 to 5 µM in the data set on Staphylococcus aureus. For the same sequence, the MIC against Vibrio aestuarianus fell in the range of 5 to 10 µM; with Vibrio splendidus, 10 to 25 µM; against Vibrio vulnificus it was 10 to 25 µM. In the data set with human red blood cells, this sequence showed a hemolysis of 43%.
For FFRHLKSLWKGAKAAFRGAR [γ-Pte20], the MBC in the data set with Aeromonas salmonicida is 1 to 5 µM; in the data set with Escherichia coli, 1 to 5 µM; against Listeria monocytogenes, 5 to 10 µM; against Salmonella typhimurium, 5 to 10 µM; against Staphylococcus aureus, 1 to 5 µM; against Vibrio aestuarianus, 10 to 25 µM. In addition, the results for the MBC in the data set on Vibrio splendidus and with Vibrio vulnificus were 5 to 10 µM and 10 to 25 µM, respectively. Also, the MIC with Aeromonas salmonicida lay within 1 to 5 µM; in the data set on Enterococcus faecalis, 1 to 5 µM; against Escherichia coli it was 1 to 5 µM; against Listeria monocytogenes, 1 to 5 µM; in the data set with Salmonella typhimurium it was 5 to 10 µM; in the data set with Staphylococcus aureus, 1 to 5 µM. For the same sequence, the MIC against Vibrio aestuarianus was 5 to 10 µM; in the data set with Vibrio splendidus, 5 to 10 µM; in the data set with Vibrio vulnificus, 10 to 25 µM. Besides, in the data set on human red blood cells, the hemolysis was 19%.
